Data from publication PMC9343605, “Structural insights into ligand recognition and selectivity of somatostatin receptors” (Cell Research, 2022).

Key:
[1] = target: T1, SSTR2 (Homo sapiens, UniProt P30874, N276A); test: cAMP accumulation assay (agonist-induced inhibition of forskolin-stimulated cAMP), SSTR2, HEK293F; type: cell-based; details: SSTR2 mutant N276^6.55A; mean ± SEM;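 also: transiently transfected cells exposed to 2 µM forskolin and a ligand concentration series for 40 min at room temperature in IBMX-containing HBSS, then cAMP quantified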
T1 construct: expressed in transfected cells; host or cells: HEK293F
T1 sequence (P30874 whole entry N276A): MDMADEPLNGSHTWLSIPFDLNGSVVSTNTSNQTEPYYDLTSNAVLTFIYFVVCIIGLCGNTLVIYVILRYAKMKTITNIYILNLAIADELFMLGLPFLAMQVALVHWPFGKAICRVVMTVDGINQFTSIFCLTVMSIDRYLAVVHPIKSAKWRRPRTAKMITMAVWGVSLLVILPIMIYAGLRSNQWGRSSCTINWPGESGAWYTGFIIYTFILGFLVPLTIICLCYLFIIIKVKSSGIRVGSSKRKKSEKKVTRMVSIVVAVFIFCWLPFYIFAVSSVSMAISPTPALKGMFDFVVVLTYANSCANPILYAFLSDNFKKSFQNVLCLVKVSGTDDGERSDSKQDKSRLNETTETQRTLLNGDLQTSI
Experimental: (§1) HEK293F cells were transiently transfected with WT or mutant SSTR2/SSTR4 using transfection reagent (PEI MAX 2000, Polysciences) and incubated at 37 °C in 5% CO2. Forty-eight hours after transfection, cells were centrifuged and resuspended in stimulation buffer (Hanks’ balanced salt solution (HBSS) supplemented with 5 mM HEPES, 0.5 mM IBMX and 0.1% (w/v) bovine serum albumin (BSA), pH 7.4) to a density of 200,000 cells/mL and added to 384-well white plates (PerkinElmer, 1000 cells/well). cAMP accumulation was measured by a LANCE Ultra cAMP kit (PerkinElmer) according to the manufacturer’s instructions. In brief, transfected cells were incubated for 40 min in stimulation buffer with 2.5 μL forskolin (SSTR2: 2 μM; SSTR4: 4 μM) and gradient concentration of ligand at RT. The reactions were stopped by addition of lysis buffer containing 5 μL Eu-cAMP tracer and 5 μL ULight-anti-cAMP. Plates were then incubated for 60 min at RT and time-resolved FRET signals were measured at 620 nm and 665 nm by an EnVision multilabel plate reader (PerkinElmer). Data were analyzed in GraphPad PRISM 8 and all values were normalized to the WT for each ligand. All outcomes were repeated at least three times.
(§2) aMutants represent that mutations were introduced separately into the WT receptors and
(§3) transiently expressed in HEK 293F cells.
(§4) bThe EC50 ratio was shown as EC50(mutant)/EC50(WT), indicating the shift between the WT
(§5) and mutant curves, reflecting the effect of the mutations on receptor signaling.
(§6) cData are shown as mean ± S.E.M. from at least three independent experiments
(§7) performed in technical triplicate. One-way ANOVA was performed followed by
(§8) Dunnett’s post-test and compared with WT. The P value was defined as: *P<0.05;
(§9) d The span is defined as the window between the maximal agonists response (Emax) and
(§10) e Sample size; the number of independent experiments performed in technical triplicate.
(§11) f Receptor expression level of HEK 293F cells was determined independently by flow
(§12) cytometry with anti-FLAG antibody and shown as per cent compared to the WT.

[2] = test system: SSTR2; test: as above; type: cell-based, human; details: EC50(mutant)/EC50(WT)
Experimental: as §1, §2, §3, §4, §5, §6, §7, §8, §9, §10, §11, §12

[3] = target: T2, SSTR2 (Homo sapiens, UniProt P30874, S316D/V106E); test: as above; type: cell-based; details: Construct 2* SSTR2; mean ± SEM
T2 construct: expressed in transfected cells; host or cells: HEK293F
T2 sequence (P30874 1-359 V106E/S316D): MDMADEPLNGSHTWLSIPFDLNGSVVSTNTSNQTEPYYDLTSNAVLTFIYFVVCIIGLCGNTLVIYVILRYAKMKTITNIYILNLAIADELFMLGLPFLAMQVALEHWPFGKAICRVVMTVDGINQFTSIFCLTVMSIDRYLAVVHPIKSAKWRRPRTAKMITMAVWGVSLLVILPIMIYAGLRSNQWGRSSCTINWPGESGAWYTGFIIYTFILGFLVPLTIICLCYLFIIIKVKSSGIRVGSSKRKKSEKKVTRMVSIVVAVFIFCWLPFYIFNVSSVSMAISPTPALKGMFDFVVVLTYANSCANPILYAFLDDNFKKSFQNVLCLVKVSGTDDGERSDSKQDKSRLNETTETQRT
Experimental: as §1, §2, §3, §4, §5, §6, §7, §8, §9, §10, §11, §12

[4] = target: T3, SSTR2 (Homo sapiens, UniProt P30874, K291A); test: as above; type: cell-based; details: SSTR2 mutant K291^7.32A; mean ± SEM
T3 construct: expressed in transfected cells; host or cells: HEK293F
T3 sequence (P30874 whole entry K291A): as the sequence (P30874 whole entry N276A) above, with A276N, K291A counted along it
Experimental: as §1, §2, §3, §4, §5, §6, §7, §8, §9, §10, §11, §12

[5] = target: T4, SSTR2 (Homo sapiens, UniProt P30874, P286A); test: as above; type: cell-based; details: SSTR2 mutant P286^ECL3A; mean ± SEM
T4 construct: expressed in transfected cells; host or cells: HEK293F
T4 sequence (P30874 whole entry P286A): as the sequence (P30874 whole entry N276A) above, with A276N, P286A counted along it
Experimental: as §1, §2, §3, §4, §5, §6, §7, §8, §9, §10, §11, §12

[6] = target: T5, SSTR2 (Homo sapiens, UniProt P30874, I284A); test: as above; type: cell-based; details: SSTR2 mutant I284^ECL3A; mean ± SEM
T5 construct: expressed in transfected cells; host or cells: HEK293F
T5 sequence (P30874 whole entry I284A): as the sequence (P30874 whole entry N276A) above, with A276N, I284A counted along it
Experimental: as §1, §2, §3, §4, §5, §6, §7, §8, §9, §10, §11, §12

[7] = target: T6, SSTR2 (Homo sapiens, UniProt P30874, F208A); test: as above; type: cell-based; details: SSTR2 mutant F208^5.38A; mean ± SEM
T6 construct: expressed in transfected cells; host or cells: HEK293F
T6 sequence (P30874 whole entry F208A): as the sequence (P30874 whole entry N276A) above, with F208A, A276N counted along it
Experimental: as §1, §2, §3, §4, §5, §6, §7, §8, §9, §10, §11, §12

[8] = target: T7, SSTR2 (Homo sapiens, UniProt P30874, V298A); test: as above; type: cell-based; details: SSTR2 mutant V298^7.39A; mean ± SEM
T7 construct: expressed in transfected cells; host or cells: HEK293F
T7 sequence (P30874 whole entry V298A): as the sequence (P30874 whole entry N276A) above, with A276N, V298A counted along it
Experimental: as §1, §2, §3, §4, §5, §6, §7, §8, §9, §10, §11, §12

[9] = target: SSTR2 (Homo sapiens, UniProt P30874, F294A); test: Whole cell binding assay, SSTR2, competition with 125I-Tyr11-SST14, CHO-K1; details: SSTR2 mutant F294^7.35A; mean ± SEM;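 also: Cell-bound radioactivity in lysed CHO-K1 cells read by scintillation counting, each mutation introduced singly into the WT receptor, at least three independent experiments run in technical triplicate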
Sequence of SSTR2 (Homo sapiens, UniProt P30874, F294A) (P30874 whole entry F294A): as the sequence (P30874 whole entry N276A) above, with A276N, F294A counted along it
Experimental: (§13) For SSTR2 and SSTR4, CHO-K1 cells were cultured in F12 medium with 10% FBS and seeded at a density of 30,000 cells/well in Isoplate-96 plates (PerkinElmer). Twenty-four hours after transfection with the WT or mutant SSTR2/SSTR4, CHO-K1 cells were washed twice and incubated with blocking buffer (F12 supplemented with 25 mM HEPES and 0.1% (w/v) BSA, pH 7.4) for 2 h at 37 °C. […] Following incubation, cells were washed three times with ice-cold PBS and lysed by 50 μL lysis buffer (PBS supplemented with 20 mM Tris-HCl, 1% Triton X-100, pH 7.4). The radioactivity was subsequently counted (counts/min, CPM) in a scintillation counter (MicroBeta[2] Plate Counter, PerkinElmer) using a scintillation cocktail (OptiPhaseSuperMix, PerkinElmer). Data were analyzed by nonlinear regression using GraphPad PRISM 8.
(§14) aMutants represent that all mutations were introduced separately into the WT receptors
and expressed in CHO K1 cells.
(§15) bThe IC50 ratio was shown as IC50(mutant)/IC50(WT), indicating the shift between the WT
(§16) and mutant curves, reflecting the effect of the mutations on ligand binding.
(§17) cData are shown as mean ± S.E.M. form at least three independent experiments
as §7
(§18) Dunnett’s post-test and compared with WT.
as §9, §10

[10] = target: SSTR2 (Homo sapiens, UniProt P30874, D122A); test: as above; details: SSTR2 mutant D122^3.32A; mean ± SEM
Sequence of SSTR2 (Homo sapiens, UniProt P30874, D122A) (P30874 whole entry D122A): as the sequence (P30874 whole entry N276A) above, with D122A, A276N counted along it
Experimental: as §13, §14
and expressed in CHO K1 cells.
as §15, §16, §17, §7, §18, §9, §10

[11] = test system: SSTR2; test: as above; details: for IC50 ratio: IC50(mutant)/IC50(WT)
Experimental: as §13, §14
and expressed in CHO K1 cells.
as §15, §16, §17, §7, §18, §9, §10

[12] = target: SSTR2 (Homo sapiens, UniProt P30874, F275A); test: as above; details: SSTR2 mutant F275^6.54A; mean ± SEM
Sequence of SSTR2 (Homo sapiens, UniProt P30874, F275A) (P30874 whole entry F275A): as the sequence (P30874 whole entry N276A) above, with F275A, A276N counted along it
Experimental: as §13, §14
and expressed in CHO K1 cells.
as §15, §16, §17, §7, §18, §9, §10

[13] = target: SSTR2 (Homo sapiens, UniProt P30874, T194A); test: as above; details: SSTR2 mutant T194^ECL2A; mean ± SEM
Sequence of SSTR2 (Homo sapiens, UniProt P30874, T194A) (P30874 whole entry T194A): as the sequence (P30874 whole entry N276A) above, with T194A, A276N counted along it
Experimental: as §13, §14
and expressed in CHO K1 cells.
as §15, §16, §17, §7, §18, §9, §10

[14] = target: SSTR2 (Homo sapiens, UniProt P30874, Y205A); test: as above; details: SSTR2 mutant Y205^5.35A; mean ± SEM
Sequence of SSTR2 (Homo sapiens, UniProt P30874, Y205A) (P30874 whole entry Y205A): as the sequence (P30874 whole entry N276A) above, with Y205A, A276N counted along it
Experimental: as §13, §14
and expressed in CHO K1 cells.
as §15, §16, §17, §7, §18, §9, §10

[15] = target: SSTR2 (Homo sapiens, UniProt P30874, Y302A); test: as above; details: SSTR2 mutant Y302^7.43A; mean ± SEM
Sequence of SSTR2 (Homo sapiens, UniProt P30874, Y302A) (P30874 whole entry Y302A): as the sequence (P30874 whole entry N276A) above, with A276N, Y302A counted along it
Experimental: as §13, §14
and expressed in CHO K1 cells.
as §15, §16, §17, §7, §18, §9, §10

[16] = target: SSTR2 (Homo sapiens, UniProt P30874); test: as above; details: WT SSTR2, mean ± SEM
Sequence of SSTR2 (Homo sapiens, UniProt P30874) (P30874 whole entry): as the sequence (P30874 whole entry N276A) above, with A276N counted along it
Experimental: as §13, §14
and expressed in CHO K1 cells.
as §15, §16, §17, §7, §18, §9, §10

[17] = target: SSTR2 (Homo sapiens, UniProt P30874, Q102A); test: as above; details: SSTR2 mutant Q102^2.63A; mean ± SEM
Sequence of SSTR2 (Homo sapiens, UniProt P30874, Q102A) (P30874 whole entry Q102A): as the sequence (P30874 whole entry N276A) above, with Q102A, A276N counted along it
Experimental: as §13, §14
and expressed in CHO K1 cells.
as §15, §16, §17, §7, §18, §9, §10

[18] = target: SSTR2 (Homo sapiens, UniProt P30874, T212A); test: as above; details: SSTR2 mutant T212^5.42A; mean ± SEM
Sequence of SSTR2 (Homo sapiens, UniProt P30874, T212A) (P30874 whole entry T212A): as the sequence (P30874 whole entry N276A) above, with T212A, A276N counted along it
Experimental: as §13, §14
and expressed in CHO K1 cells.
as §15, §16, §17, §7, §18, §9, §10

[19] = target: SSTR2 (Homo sapiens, UniProt P30874, F272A); test: as above; details: SSTR2 mutant F272^6.51A; mean ± SEM
Sequence of SSTR2 (Homo sapiens, UniProt P30874, F272A) (P30874 whole entry F272A): as the sequence (P30874 whole entry N276A) above, with F272A, A276N counted along it
Experimental: as §13, §14
and expressed in CHO K1 cells.
as §15, §16, §17, §7, §18, §9, §10

[20] = target: SSTR2 (Homo sapiens, UniProt P30874, Q126A); test: as above; details: SSTR2 mutant Q126^3.36A; mean ± SEM
Sequence of SSTR2 (Homo sapiens, UniProt P30874, Q126A) (P30874 whole entry Q126A): as the sequence (P30874 whole entry N276A) above, with Q126A, A276N counted along it
Experimental: as §13, §14
and expressed in CHO K1 cells.
as §15, §16, §17, §7, §18, §9, §10

In the case of C[C@@H](c1c[nH]c2ccccc12)[C@@H](NC(=O)N1CCC(n2c(=O)[nH]c3ccccc32)CC1)C(=O)N[C@@H](CCCCN)C(=O)OC(C)(C)C [L-054,522], the Span [1] is reported as 80±5 % of WT, the “pEC50 ± SEM” value [1] is reported as 8.47±0.15 and the EC50 ratio ([2]; Construct 2* SSTR2) is reported as 2. It also gave an EC50 ratio ([2]; SSTR2 mutant D122^3.32A) of 191, an EC50 ratio ([2]; SSTR2 mutant F208^5.38A) of 2 and an EC50 ratio ([2]; SSTR2 mutant F272^6.51A) of 64. It also gave an EC50 ratio ([2]; SSTR2 mutant F275^6.54A) of 5, an EC50 ratio ([2]; SSTR2 mutant F294^7.35A) of 20 and an EC50 ratio ([2]; SSTR2 mutant I284^ECL3A) of 4. It also gave an EC50 ratio ([2]; SSTR2 mutant K291^7.32A) of 4, an EC50 ratio ([2]; SSTR2 mutant N276^6.55A) of 15 and an EC50 ratio ([2]; SSTR2 mutant P286^ECL3A) of 7. The EC50 ratio ([2]; SSTR2 mutant Q102^2.63A) was 2, the EC50 ratio ([2]; SSTR2 mutant Q126^3.36A) was 3 and the EC50 ratio ([2]; SSTR2 mutant T194^ECL2A) was 3. For the same compound, the EC50 ratio ([2]; SSTR2 mutant T212^5.42A) was 5, the EC50 ratio ([2]; SSTR2 mutant V298^7.39A) was 10 and the EC50 ratio ([2]; SSTR2 mutant Y205^5.35A) was 0.05. For the same compound, the EC50 ratio ([2]; SSTR2 mutant Y302^7.43A) was 10, the Span [3] was 76±6 % of WT and the “pEC50 ± SEM” value [3] was 9.28±0.17. The “pEC50 ± SEM” value [4] was 9.02±0.12, the Span [5] was 96±7 % of WT and the “pEC50 ± SEM” value [5] was 8.83±0.18. The Span [6] was 84±7 % of WT, the “pEC50 ± SEM” value [6] was 9.07±0.22 and the Span [7] was 81±5 % of WT. The “pEC50 ± SEM” value [7] was 9.34±0.13, the Span [8] was 131±9 % of WT and the “pEC50 ± SEM” value [8] was 8.68±0.16. The Span [9] was 19±2 % of WT, the Span [10] was 15±7 % of WT and the IC50 ratio ([11]; Construct 2 SSTR2) was 3. It also gave an IC50 ratio ([11]; SSTR2 mutant F275^6.54A) of 9, an IC50 ratio ([11]; SSTR2 mutant Q102^2.63A) of 152 and an IC50 ratio ([11]; SSTR2 mutant T194^ECL2A) of 12. The IC50 ratio ([11]; SSTR2 mutant T212^5.42A) was 1, the IC50 ratio ([11]; SSTR2 mutant Y205^5.35A) was 0.4 and the IC50 ratio ([11]; WT SSTR2) was 1. For the same compound, the “effect of construct modifications on binding and signaling” value ([11]; crystallization construct vs WT SSTR2) was “little effect on L-054,522 binding and signaling”, the Span [12] was 33±3 % of WT and the “pIC50 ± SEM” value [12] was 7.57±0.23. The Span [13] was 22±6 % of WT, the “pIC50 ± SEM” value [13] was 7.45±0.59 and the Span [14] was 70±5 % of WT. The “pIC50 ± SEM” value [14] was 8.89±0.15, the Span [15] was 15±2 % of WT and the “pKi ± SEM” value ([16]; competition with 125I-SST-14) was 8.53 ± 0.13. For the same compound, the Span [16] was 100±6 % of WT, the “pIC50 ± SEM” value ([16]; at least three independent experiments) was 8.53±0.13 and the Span [17] was 20±5 % of WT. For the same compound, the “pIC50 ± SEM” value [17] was 6.35±0.52, the Span [18] was 94±5 % of WT and the “pIC50 ± SEM” value [18] was 8.49±0.11. For the same compound, the Span [19] was 13±3 % of WT and the Span [20] was 15±5 % of WT.
